{"source": "paper PMC4201456", "about": "“Cytoxicity and Apoptotic Mechanism of Ruthenium(II) Amino Acid Complexes in Sarcoma-180 Tumor Cells” (PLoS ONE, 2014)", "type_in_all_cases": "cell-based, murine", "key": {"[1]": {"system": "L929 normal cells", "assay": "MTT cell viability assay, L929 normal cells", "conditions": "L929 normal cell line, 48 h", "protocol": "The murine sarcoma-180 tumor cells (S180) (ATCC# TIB-66) and normal murine fibroblast cells (L-929) (ATCC# CCL-1) were cultured in suspension in RPMI 1640 and DMEM media (Sigma Chemical Co., MO), respectively, supplemented with 10% fetal calf serum, 100 µg/mL penicillin, and 100 µg/mL streptomycin. The cultures were incubated in a humidified incubator (Thermo Scientific) at 37°C with 5% CO2.\nThe cytotoxic effects of the amino acid ruthenium complexes were evaluated using an MTT assay with S180 tumor cells and L929 normal cells as described previously. Briefly, 1.0×10^5 S180 cells and 2.0×10^4 L929 cells were plated in 96-well tissue culture plates and treated with different concentrations of amino acid ruthenium complexes (0.2–200 µM) for 48 h. After treatment, 10 µL of MTT (5 mg mL^−1) was added to each well, and the plates were incubated at 37°C for an additional 3 h. The purple formazan crystals were dissolved in 50 µL of SDS, and the absorbance was determined at 545 nm using a Stat Fax 2100 microplate reader (Awareness Technology, Palm City, FL, USA). The cell viability was calculated as follows: viability (%) = (absorbance of the treated wells)/(absorbance of the control wells) ×100. The IC50 (complex concentration (µM) that results in a 50% reduction in cellular viability) was obtained from dose-response curves using GraphPad Prism 4.02 for Windows (GraphPad Software, San Diego, CA, USA)."}, "[2]": {"system": "p53", "assay": "Real-time RT-PCR gene expression, p53", "conditions": "S180 cells, 40 µM, 6 h; p>0.05", "protocol": "(§1) The S180 cells were treated with 40 µM complex 2 for 6 h. Total RNA was extracted with Trizol reagent (Sigma-Aldrich, USA) following the manufacturer's protocol. Total RNA (2.0 µg) was used to produce complementary DNA (cDNA) with random primers (Applied Biosystems, USA) in a 20 µL reaction mixture according to the manufacturer's protocol.\n(§2) Real-time PCR was carried out using a Line Gene K (Bioer Technology) instrument. Real-time PCR reactions were carried out in a 20 µL reaction mixture, including 2 µL of cDNA, 10 µL of SYBR Green PCR Master Mix (LGC Biotechnology, UK), and 2.0 µL of 400 nM forward and reverse primers. The PCR program was initiated at 95°C for 15 min followed by 40 cycles of 95°C for 15 s, 55°C for 15 s, and 72°C for 30 s. The data were analyzed according to the comparative Ct method and were normalized to the β-actin reference gene expression in each sample."}, "[3]": {"system": "S180 cells", "assay": "Cell cycle analysis by PI flow cytometry", "protocol": "The S180 cells were treated with complex 2 (40 µM and 60 µM) for 24 h and 48 h. Briefly, 5.0×10^5 cells were harvested by centrifugation, washed with phosphate-buffered saline (PBS), fixed with 70% (v/v) cold ethanol and stored overnight at −20°C. The fixed cells were washed with PBS and incubated with propidium iodide (PI; Sigma-Aldrich) containing 0.05% RNase. The samples were incubated at 4°C in the dark and analyzed by flow cytometry (FACS Calibur, BD Biosciences). The percentage of cells in the G0/G1, S, G2/M and sub-G1 phases was analyzed using ModFit software."}, "[4]": {"system": "S180 cells", "assay": "Mitochondrial membrane potential, JC-1 flow cytometry", "conditions": "24 h; for percentage of cells with depolarized mitochondria: control 11.5%; for percentage of cells showing red fluorescence (upper-right quadrant): control 88.5%", "protocol": "The effect of complex 2 on the mitochondrial membrane potential (ΔΨm) was measured using JC-1 dye (BD Biosciences) by flow cytometry according to the manufacturer's instructions. Briefly, 3.0×10^5 S180 cells were treated with complex 2 (40 µM and 60 µM) for 24 h. After incubation, the cells were harvested and washed with PBS. The cells were then incubated with JC-1 dye (BD Biosciences) for 15 min at 37°C in the dark. The stained cells were washed, resuspended in assay buffer, and immediately analyzed by flow cytometry. The data were analyzed using the Cell Quest software."}, "[5]": {"system": "caspase 8", "assay": "Real-time RT-PCR gene expression, caspase 8", "conditions": "S180 cells, 40 µM, 6 h; p>0.05", "protocol": "as §1, §2"}, "[6]": {"system": "Bak protein", "assay": "Western blot analysis of Bak protein", "conditions": "S180 cells, 60 µM, 24 h; normalized to β-actin; control 5.08", "protocol": "The S180 cells were treated with 40 µM and 60 µM complex 2 for 24 h. Untreated cells maintained in media only were used as the control. After treatment, the cells were washed with PBS and lysed with lysis buffer (Invitrogen). The samples were stored at −20°C until further analysis. The protein concentrations of the resulting lysates were determined using the Bradford assay. A total of 70 µg of protein extract was mixed with Laemmli loading buffer and subjected to 12% SDS-PAGE at 100 V for 2 h, followed by electroblotting to nitrocellulose membranes (0.45 µm) (Bio-Rad Laboratories, Inc.) at 400 mA for 1.5 h. […] The membranes were washed in TBS-T, incubated with an HRP-conjugated IgG secondary antibody (Santa Cruz Biotechnology Inc., 1∶1000 dilution) for 1 h, and washed with TBS-T. The immunoreactive bands were detected using an ECL western blotting substrate (Super Signal West Pico Substrate, Thermo Scientific), and the ECL signals were captured using a CCD camera (ImageQuant LAS 4000 mini; GE Healthcare). The optical density of the target protein bands was measured using IMAGE J software downloaded from the NIH website (http://rsb.info.nih.gov.ij/) to compare the protein levels. […]"}}}
{"smiles": "F[P-](F)(F)(F)(F)F.NCC(=O)[O-].[Ru+2].c1ccc(-c2ccccn2)nc1.c1ccc(P(CCCCP(c2ccccc2)c2ccccc2)c2ccccc2)cc1", "note": "[Complex 2, [Ru(gly)(bipy)(dppb)]PF6]", "values": [{"measurement": "IC50", "setting": "[1]", "result": "51.6 ± 1.22", "unit": "µM"}, {"measurement": "expression level of p53 compared with control", "setting": "[2]", "result": "remained unchanged"}, {"measurement": "fraction of G0/G1 cells", "setting": "[3]; 40 µM, 24 h, control 23.6%", "result": 61.07, "unit": "%"}, {"measurement": "fraction of G0/G1 cells", "setting": "[3]; 40 µM, 48 h, control 41.55%", "result": 59.94, "unit": "%"}, {"measurement": "fraction of G0/G1 cells", "setting": "[3]; 60 µM, 24 h, control 23.6%", "result": 56.09, "unit": "%"}, {"measurement": "fraction of G0/G1 cells", "setting": "[3]; 60 µM, 48 h, control 41.55%", "result": 59.86, "unit": "%"}, {"measurement": "percentage of cells with depolarized mitochondria", "setting": "[4]; 40 µM", "result": 45.2, "unit": "%"}, {"measurement": "percentage of cells showing red fluorescence (upper-right quadrant)", "setting": "[4]; 40 µM", "result": 54.3, "unit": "%"}, {"measurement": "percentage of cells with depolarized mitochondria", "setting": "[4]; 60 µM", "result": 52.6, "unit": "%"}, {"measurement": "percentage of cells showing red fluorescence (upper-right quadrant)", "setting": "[4]; 60 µM", "result": 47.1, "unit": "%"}, {"measurement": "expression level of caspase 8 compared with control", "setting": "[5]", "result": "remained unchanged"}, {"measurement": "expression level of the Bak protein", "setting": "[6]", "result": 9.40, "unit": "fold"}]}
